# According to PubChem BioAssay (NCI):
# Where “and” joins values, the source holds several entries; their conditions need not be identical. Identical values can stand only once.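 Dose response: 5 concentrations. Exposure: 48 h. Format: 96-well plates. Endpoint: linear interpolation; highest concentration if not reached. GI50: concentration for 50% inhibition of growth. TGI marks complete inhibition of growth.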
# Tests used:
# Assay in all cases: NCI anticancer screen, dose series, 48 h
# [1] = tested on: HCC-2998 colon
# [2] = tested on: A498 renal
# [3] = tested on: SNB-75 CNS
# [4] = tested on: EKVX NSCLC
# [5] = tested on: MCF7 breast
# [6] = tested on: MDA-MB-231 breast
# [7] = tested on: 786-0 renal
# [8] = tested on: MALME-3M melanoma
# [9] = tested on: IGROV1 ovarian
# [10] = tested on: RXF 393 renal
Compound,GI50 [1] [µM],TGI [1] [µM],GI50 [2],TGI [2],GI50 [3] [µM],TGI [3],GI50 [4],TGI [4],GI50 [5] [µM],TGI [5],GI50 [6] [µM],TGI [6],GI50 [7],TGI [7],GI50 [8] [µM],TGI [8],GI50 [9],TGI [9],GI50 [10] [µM],TGI [10]
COc1cc2c3c(n(CCN4CCOCC4)c(=O)c2cc1OC)-c1ccccc1C3=O,33.8,> 100,85.7 µM,> 100 µM,> 100,> 100 µM,> 100 µM,> 100 µM,37.8,> 100 µM,> 100,> 100 µM,88.9 µM,> 100 µM,> 100,> 100 µM,17.2 µM,> 100 µM,> 100,> 100 µM
Cn1cc(C2=C(c3cc[nH]c3)C(=O)NC2=O)c2ccccc21,> 25,> 25,8.98 µM,> 25 µM,1.96,> 25 µM,–,–,11.8,> 25 µM,> 25,> 25 µM,> 25 µM,> 25 µM,> 25,> 25 µM,> 25 µM,> 25 µM,18.3,> 25 µM
Cc1nc2sc(C(=O)Nc3ccccc3)c(N)c2cc1C(O)c1ccccc1 (stereo unspecified),0.329,6.27,0.106 µM,1.19 µM,0.244,> 72.8 µM,0.597 µM,> 100 µM,0.091,19.1 µM,0.411,> 64.6 µM,0.553 µM,20 µM,0.6,34.3 µM,0.445 µM,44.4 µM,0.27,1.88 µM
CN(C)C(=S)/N=c1\ssc(=S)n1Cc1ccco1,–,> 100,–,> 74.2 µM,–,> 23.9 µM,–,> 100 µM,–,> 100 µM,–,84.2 µM,–,> 46.4 µM,–,> 100 µM,–,> 100 µM,–,8.22 µM
O=c1cc(-c2ccccc2)oc2cc(OCCCCCN3CCOCC3)cc(O)c12,–,8.38,33.7 µM,82.9 µM,3.64,15.2 µM,> 100 µM,> 100 µM,88.4,> 100 µM,15.6,63.7 µM,30 µM,> 100 µM,–,–,47.4 µM,> 100 µM,16.8,46.1 µM
CCC[n+]1cc2cc3c(cc2c2c1-c1cc4c(cc1C2)OCO4)OCO3 (tested in a mixture with another compound),0.504,2.14,11.2 µM,25.7 µM,0.403,1.38 µM,2.18 µM,19.2 µM,0.468,6.34 µM,2.39,12.1 µM,0.46 µM,10 µM,0.29,1.53 µM,–,7.81 µM,–,–
COc1cc2c(NC3CCN(C(C)C)CC3)nc(C3CCCCC3)nc2cc1OCCCN1CCCC1,9.03,27.4,2.01 µM,14.1 µM,2.09,10.8 µM,8.42 µM,21.1 µM,2.64,14.4 µM,2.61,9.44 µM,6.14 µM,17.7 µM,1.8,3.42 µM,12.5 µM,26.9 µM,1.8,4.27 µM
CC(=O)c1ccc2c3c1[C@H]1O[C@H]1c1cccc(c1-3)[C@@H]1O[C@H]21,–,–,2.74 µM,7.36 µM,–,6.12 µM,–,4.03 µM,–,> 33.5 µM,–,4.44 µM,1.74 µM,4 µM,–,3.07 µM,–,0.294 µM,–,3.82 µM
[Cl][Hg][c]1ccc2ccccc2c1,2.57,7.21,3.96 µM,12.4 µM,2.24,5.79 µM,3.07 µM,7.96 µM,2.07,5.61 µM,1.74,3.5 µM,1.76 µM,3.21 µM,1.78,3.4 µM,1.31 µM,3.02 µM,1.62,3.04 µM
Oc1ccc(Cl)cc1Sc1cc(Cl)ccc1O,3.92,14.8,2.73 µM,24.2 µM and 7.72 µM,2.94,36.4 µM and 10.6 µM,2.58 µM,33 µM and 8.19 µM,3.33,34.5 µM and 10.7 µM,2.72,31.7 µM and 7.71 µM,11.9 µM,33 µM and 25.2 µM,2.41,20.3 µM and 6.81 µM,3.52 µM,32.5 µM and 9.5 µM,4.88,31.1 µM and 17.1 µM
Cc1ccnc2c(NC(C)CCCN)cc(O)c(O)c12 (stereo unspecified),7.83,32,33.4 µM,> 100 µM,19,81.1 µM,21.3 µM,61.8 µM,1.97,5.9 µM,16,74 µM,71.2 µM,> 100 µM,19.4,52.9 µM,12.5 µM,32.9 µM,32.3,> 100 µM
Cc1cc(Cl)nc(N(CCCNc2ccnc3cc(Cl)ccc23)Cc2cccs2)n1,2.09,6.12,0.714 µM,6.99 µM,2.08,13.6 µM,1.99 µM,12.7 µM,1.74,6.85 µM,1.24,3.4 µM,1.49 µM,4.35 µM,1.64,3.46 µM,0.856 µM,6.2 µM,1.37,5.22 µM
CCN(CC)S(=O)(=O)c1cccc(-c2ccc3c(NC(=O)C4CC4)n[nH]c3c2)c1,> 6.25,> 6.25,1.61 µM,> 6.25 µM,1.32,> 6.25 µM,2.19 µM,> 6.25 µM,1.19,> 6.25 µM,2.84,> 6.25 µM,2.5 µM,> 6.25 µM,1.46,> 6.25 µM,3.79 µM,> 6.25 µM,1.94,5.17 µM
Cc1c(NC(=O)Nc2c(Cl)cccc2Cl)c(=O)n(-c2ccccc2)n1C,–,–,–,> 100 µM,–,> 100 µM,–,> 100 µM,–,> 100 µM,–,> 100 µM,–,> 100 µM,–,> 100 µM,–,> 100 µM,–,> 100 µM
O=C1C(Cl)=C(Nc2cc(Cl)ccc2O)C(=O)N1Cc1ccccc1,–,–,19.7 µM,35.7 µM,27.5,64.6 µM,21.3 µM,50.5 µM,21,52.9 µM,17.5,33.2 µM,18.2 µM,33 µM,20.7,37.5 µM,5.53 µM,26.4 µM,14.1,30.3 µM
c1cc(C2CCCCC2)ccc1-c1cnc2nonc2n1,1.47,2.94,0.565 µM,2.32 µM,0.528,1.71 µM,1.52 µM,3.65 µM,0.393,3.21 µM,1.33,4.01 µM,0.506 µM,1.9 µM,1.18,2.66 µM,1.13 µM,3.15 µM,0.514,1.56 µM
CC(C)c1[nH]nc2c(NCc3ccc(-c4ccccn4)cc3)nc(SCCN)nc12,0.025,1.08,0.0306 µM and 0.0302 µM,0.0826 µM and 0.0876 µM,0.00587,0.0331 µM and 0.0448 µM,0.0328 µM and 0.0557 µM,1.52 µM and 2.62 µM,0.00401,2.28 µM and 10.2 µM,0.00492,0.205 µM and 0.212 µM,0.143 µM and 0.327 µM,–,0.016,0.0598 µM,0.0215 µM and 0.0231 µM,12.4 µM,0.0169,0.0532 µM
CC(C)(O)CCc1cccc(C(=O)c2cnn(-c3ccc(F)cc3)c2N)c1,> 25,> 25,> 18.4 µM,> 25 µM,> 25,> 25 µM,–,–,> 25,> 25 µM,> 25,> 25 µM,> 25 µM,> 25 µM,> 25,> 25 µM,> 25 µM,> 25 µM,> 25,> 25 µM
O=C1c2ccn(CCCNC(CO)(CO)CO)c2C(=O)c2c1c(O)c1ccccc1c2O,2.52,8.2,–,–,> 75.2,> 100 µM,49.7 µM,> 100 µM,13,33 µM,8.39,25.2 µM,7.94 µM,26.9 µM,22.7,74.3 µM,9.27 µM,56.8 µM,24.2,> 61 µM
CSc1nnc(-c2cc3c([nH]c4ccccc43)c(-c3cccc(O)c3)n2)n1-c1ccc(C)cc1,12.3,> 100,1.73 µM,7.14 µM,1.66,5.33 µM,4.51 µM,> 100 µM,2.5,> 100 µM,3.31,15.8 µM,4.61 µM,32.2 µM,1.88,5.4 µM,3.62 µM,24.6 µM,2.11,6.51 µM
O=C(NCc1ccco1)C1CCN(S(=O)(=O)c2ccc(Cl)cc2)CC1,> 100,> 100,–,–,> 100,> 100 µM,–,–,37.8,> 100 µM,> 100,> 100 µM,> 100 µM,> 100 µM,> 100,> 100 µM,> 100 µM,> 100 µM,> 100,> 100 µM
NC(Cc1cccnn1)C(=O)O (stereo unspecified),–,> 100,–,> 100 µM,–,> 100 µM,–,> 100 µM,–,> 100 µM,–,> 100 µM,–,> 100 µM,–,> 100 µM,–,> 100 µM,–,> 100 µM
O=C1CC(Cc2n[nH]c3c2CCCC3)CC(=O)N1,–,> 100,–,> 100 µM,–,> 100 µM,–,> 100 µM,–,> 100 µM,–,> 100 µM,–,> 100 µM,–,> 100 µM,–,> 100 µM,–,> 100 µM
COc1ccc(/C=C2\COc3ccc(O)c(O)c3C2=O)cc1OC,1.76,3.31,2.47 µM,8.28 µM,1.98,29.1 µM,2.76 µM,18.8 µM,0.682,> 100 µM,1.48,5.55 µM,1.51 µM,3.87 µM,1.33,3.2 µM,0.84 µM,3.53 µM,1.44,2.91 µM
Cc1cc2c3c([n+](C)c4ccc(F)cc4c3c1)-c1cc(F)ccc1N2C,3.99,16.5,> 100 µM,> 100 µM,11,41.5 µM,62.4 µM,> 100 µM,14.3,44.6 µM,24.3,85.3 µM,6.24 µM,> 100 µM,4.19,17.2 µM,19.9 µM,> 100 µM,> 100,> 100 µM
O=C(N=Nc1c(Cl)c(O)c2ccccc2c1O)C(=O)Nc1cccc(C(F)(F)F)c1,10.4,22.9,9.13 µM,23.6 µM,3.06,15.5 µM,–,–,1.84,4.31 µM,1.6,12.9 µM,12.6 µM,25.1 µM,3.12,7.64 µM,2.99 µM,21.4 µM,5.81,18.8 µM
COc1c(-c2ccc3c(c2)OCO3)oc2cc(O)cc(O)c2c1=O,–,> 100,–,72.3 µM,–,53.6 µM,–,> 100 µM,–,75.3 µM,–,> 100 µM,–,> 100 µM,–,–,–,> 100 µM,–,42.5 µM
Cc1c(Cl)cccc1NC(=O)c1sc2nc3c(cc2c1N)C(=O)CCC3,0.201,> 60,0.023 µM,0.203 µM,0.0385,20.9 µM,–,–,0.0452,> 100 µM,0.138,16.5 µM,0.0917 µM,> 59.4 µM,0.0363,> 100 µM,0.153 µM,> 100 µM,0.037,1.11 µM
